According to patent publication US10093683B2, “Factor XIa inhibitors” (Merck Sharp & Dohme Corp., priority 2014, dated 2018):

Molecular target: human Factor XIa (Homo sapiens (Human), UniProt P03951)
Assay: Factor XIa Assay
Assay type: biochemical
Conditions: purified human Factor XIa 40 pM, Z-Gly-Pro-Arg-AFC 100 μM, pH 7.4; read-out: FXIa Ki
Description: The effectiveness of a compound of the present invention as an inhibitor of Coagulation Factor XIa can be determined using a relevant purified serine protease, and an appropriate synthetic substrate. The rate of hydrolysis of the chromogenic or fluorogenic substrate by the relevant serine protease was measured both in the absence and presence of compounds of the present invention. Assays were conducted at room temperature or at 37° C. […] A decrease in the rate of fluorescence change in the presence of inhibitor is indicative of enzyme inhibition. Such methods are known to one skilled in the art. The results of this assay are expressed as the inhibitory constant, Ki.
Factor XIa determinations were made in 50 mM HEPES buffer at pH 7.4 containing 150 mM NaCl, 5 mM CaCl2, and 0.1% PEG 8000 (polyethylene glycol; JT Baker or Fisher Scientific). Determinations were made using purified human Factor XIa at a final concentration of 40 pM (Sekisui Diagnostics) and he synthetic substrate, Z-Gly-Pro-Arg-AFC, TFA salt (Sigma #C0980) at a concentration of 100 μM.
Times required to achieve equilibration between enzyme and inhibitor were determined in control experiments. Initial velocities of product formation in the absence (Vo) or presence of inhibitor (Vi) were measured. Assuming competitive inhibition, and that unity is negligible compared Km/[S], [I]/e, and [I]/e (where [S], [I], and e respectively represent the total concentrations, of substrate, inhibitor and enzyme), the equilibrium constant (Ki) for dissociation of the inhibitor from the enzyme can be obtained from the dependence of Vo/Vi on [I] shown in the following equation.

human Factor XIa, sequence (P03951 388-625): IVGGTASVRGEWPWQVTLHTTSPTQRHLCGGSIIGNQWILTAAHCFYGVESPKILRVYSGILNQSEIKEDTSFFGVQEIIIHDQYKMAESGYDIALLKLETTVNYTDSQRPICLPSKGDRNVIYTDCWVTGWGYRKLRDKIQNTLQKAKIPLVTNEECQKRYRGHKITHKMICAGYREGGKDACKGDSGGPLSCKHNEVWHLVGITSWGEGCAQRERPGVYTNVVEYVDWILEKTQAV
human Factor XIa, sequence (P03951 19-387 partner): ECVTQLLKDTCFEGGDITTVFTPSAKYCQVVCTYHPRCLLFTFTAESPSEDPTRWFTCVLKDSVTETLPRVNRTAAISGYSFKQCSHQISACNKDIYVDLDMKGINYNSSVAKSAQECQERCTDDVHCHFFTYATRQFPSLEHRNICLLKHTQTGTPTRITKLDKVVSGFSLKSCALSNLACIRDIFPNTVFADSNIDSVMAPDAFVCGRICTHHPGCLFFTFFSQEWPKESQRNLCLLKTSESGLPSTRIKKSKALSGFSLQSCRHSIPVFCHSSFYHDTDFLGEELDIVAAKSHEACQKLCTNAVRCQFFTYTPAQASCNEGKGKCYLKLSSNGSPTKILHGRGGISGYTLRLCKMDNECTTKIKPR

SMILES	Ki [nM]
COC(=O)Nc1ccc(C(=O)N[C@@H](Cc2ccccc2)C(=O)N2CCC[C@@]3(C2)OC(=O)Nc2ccc(C(F)(F)F)cc23)cc1 [Example 10, methyl (4-(((S)-1-oxo-1-((R)-2-oxo-6-(trifluoromethyl)-1,2-dihydrospiro[benzo[d][1,3]oxazine-4,3′-piperidin]-1′-yl)-3-phenylpropan-2-yl)carbamoyl)phenyl)carbamate]	8440
COC(=O)Nc1ccc(C(=O)N[C@@H](Cc2ccccc2)C(=O)N2CCC[C@@]3(C2)OC(=O)Nc2cc(F)c(Cl)c(F)c23)cc1 [Example 11, methyl (4-(((S)-1-((R)-6-chloro-5,7-difluoro-2-oxo-1,2-dihydrospiro[benzo[d][1,3]oxazine-4,3′-piperidin]-1′-yl)-1-oxo-3-phenylpropan-2-yl)carbamoyl)phenyl)carbamate]	51
COC(=O)Nc1ccc(C(=O)N[C@@H](Cc2ccccc2)C(=O)N2CCC[C@@]3(C2)OC(=O)Nc2c(F)cc(Cl)cc23)cc1 [Example 12, methyl (4-(((S)-1-((R)-6-chloro-8-fluoro-2-oxo-1,2-dihydrospiro[benzo[d][1,3]oxazine-4,3′-piperidin]-1′-yl)-1-oxo-3-phenylpropan-2-yl)carbamoyl)phenyl)carbamate]	109
COC(=O)Nc1ccc(C(=O)N[C@@H](Cc2ccccc2)C(=O)N2CC[C@]3(C2)OC(=O)Nc2ccc(C)cc23)cc1 [Example 14a, methyl (4-(((S)-1-((S)-6-methyl-2-oxo-1,2-dihydrospiro[benzo[d][1,3]oxazine-4,3′-pyrrolidin]-1′-yl)-1-oxo-3-phenylpropan-2-yl)carbamoyl)phenyl)carbamate]	5000
COC(=O)Nc1ccc(C(=O)N[C@@H](Cc2ccccc2)C(=O)N2CCC[C@@]3(C2)OC(=O)Nc2ccc(C4CC4)c(F)c23)cc1 [Example 17, methyl (4-(((S)-1-((R)-6-cyclopropyl-5-fluoro-2-oxo-1,2-dihydrospiro[benzo[d][1,3]oxazine-4,3′-piperidin]-1′-yl)-1-oxo-3-phenylpropan-2-yl)carbamoyl)phenyl)carbamate]	37.4
COC(=O)Nc1ccc(C(=O)N[C@@H](Cc2ccccc2)C(=O)N2CCC3(CC(=O)Nc4ccc(Cl)cc43)C2)cc1 (stereo partly drawn) [Example 18, methyl (4-(((2S)-1-(6′-chloro-2′-oxo-2′,3′-dihydro-1′H-spiro[pyrrolidine-3,4′-quinolin]-1-yl)-1-oxo-3-phenylpropan-2-yl)carbamoyl)phenyl)carbamate]	5000
COC(=O)Nc1ccc(C(=O)N[C@@H](CC2CC2)C(=O)N2CC[C@]3(C2)OC(=O)Nc2ccc(Cl)cc23)cc1 [Example 21a, methyl (4-(((S)-1-((S)-6-chloro-2-oxo-1,2-dihydrospiro[benzo[d][1,3]oxazine-4,3′-pyrrolidin]-1′-yl)-3-cyclopropyl-1-oxopropan-2-yl)carbamoyl)phenyl)carbamate]	726
COC(=O)Nc1ccc(C(=O)N[C@@H](CC2CC2)C(=O)N2CC[C@@]3(C2)OC(=O)Nc2ccc(Cl)cc23)cc1 [Example 21b, methyl (4-(((S)-1-((R)-6-chloro-2-oxo-1,2-dihydrospiro[benzo[d][1,3]oxazine-4,3′-pyrrolidin]-1′-yl)-3-cyclopropyl-1-oxopropan-2-yl)carbamoyl)phenyl)carbamate]	31.2
COC(=O)Nc1ccc(C(=O)N[C@@](C)(Cc2ccccc2)C(=O)N2CCC3(C2)OC(=O)Nc2ccc(Cl)cc23)cc1 (stereo partly drawn) [Example 24, methyl (4-(((2S)-1-(6-chloro-2-oxo-1,2-dihydrospiro[benzo[d][1,3]oxazine-4,3′-pyrrolidin]-1′-yl)-2-methyl-1-oxo-3-phenylpropan-2-yl)carbamoyl)phenyl)carbamate]	≥ 5000
COC(=O)Nc1ccc(C(=O)N[C@@]2(C(=O)N3CCC4(C3)OC(=O)Nc3ccc(Cl)cc34)C[C@@H]2c2ccccc2)cc1 (stereo partly drawn) [Example 25, methyl (4-(((1S,2R)-1-(6-chloro-2-oxo-1,2-dihydrospiro[benzo[d][1,3]oxazine-4,3′-pyrrolidin]-1′-ylcarbonyl)-2-phenylcyclopropyl)carbamoyl)phenyl)carbamate]	≥ 5000
COC(=O)Nc1ccc(C(=O)N[C@H](C(=O)N2CCC3(C2)OC(=O)Nc2ccc(Cl)cc23)c2ccccc2)cc1 (stereo partly drawn) [Example 29, methyl (4-(((1S)-2-(6-chloro-2-oxo-1,2-dihydrospiro[benzo[d][1,3]oxazine-4,3′-pyrrolidin]-1′-yl)-2-oxo-1-phenylethyl)carbamoyl)phenyl)carbamate]	≥ 5000
COC(=O)Nc1ccc(C(=O)N[C@H](C(=O)N2CCC3(C2)OC(=O)Nc2ccc(Cl)cc23)[C@H](C)c2ccccc2)cc1 (stereo partly drawn) [Example 33, methyl (4-(((2S,3R)-1-(6-chloro-2-oxo-1,2-dihydrospiro[benzo[d][1,3]oxazine-4,3′-pyrrolidin]-1′-yl)-1-oxo-3-phenylbutan-2-yl)carbamoyl)phenyl)carbamate]	4310
COC(=O)Nc1ccc(C(=O)N[C@@H](CC2CCCCC2)C(=O)N2CCC3(C2)OC(=O)Nc2ccc(Cl)cc23)cc1 (stereo partly drawn) [Example 34, methyl (4-(((2S)-1-(6-chloro-2-oxo-1,2-dihydrospiro[benzo[d][1,3]oxazine-4,3′-pyrrolidin]-1′-yl)-3-cyclohexyl-1-oxopropan-2-yl)carbamoyl)phenyl)carbamate]	90
COC(=O)Nc1ccc(C(=O)N[C@@H](CCC(F)(F)F)C(=O)N2CCC[C@@]3(C2)OC(=O)Nc2ccc(Cl)c(F)c23)cc1 [Example 36, methyl (4-(((S)-1-((R)-6-chloro-5-fluoro-2-oxo-1,2-dihydrospiro[benzo[d][1,3]oxazine-4,3′-piperidin]-1′-yl)-5,5,5-trifluoro-1-oxopentan-2-yl)carbamoyl)phenyl)carbamate]	84.4
COC(=O)Nc1ccc(C(=O)NC[C@@H](Cc2ccccc2)C(=O)N2CCC3(C2)OC(=O)Nc2ccc(Cl)cc23)cc1 (stereo partly drawn) [Example 41, methyl (4-(((2R)-2-benzyl-3-(6-chloro-2-oxo-1,2-dihydrospiro[benzo[d][1,3]oxazine-4,3′-pyrrolidin]-1′-yl)-3-oxopropyl)carbamoyl)phenyl)carbamate]	> 5000
COC(=O)Nc1ccc(C(=O)NC(CC2CCS(=O)(=O)CC2)C(=O)N2CCC3(C2)OC(=O)Nc2ccc(Cl)cc23)cc1 (stereo not shown) [Example 42, methyl (4-((1-(6-chloro-2-oxo-1,2-dihydrospiro[benzo[d][1,3]oxazine-4,3′-pyrrolidin]-1′-yl)-3-(1,1-dioxidotetrahydro-2H-thiopyran-4-yl)-1-oxopropan-2-yl)carbamoyl)phenyl)carbamate]	83.6
COC(=O)Nc1ccc(C(=O)N[C@@H](Cc2ccc(NS(C)(=O)=O)cc2)C(=O)N2CCC[C@@]3(C2)OC(=O)Nc2ccc(Cl)cc23)cc1 [Example 46, methyl (4-(((S)-1-((R)-6-chloro-2-oxo-1,2-dihydrospiro[benzo[d][1,3]oxazine-4,3′-piperidin]-1′-yl)-3-(4-(methylsulfonamido)phenyl)-1-oxopropan-2-yl)carbamoyl)phenyl)carbamate]	0.39
COC(=O)Nc1ccc(C(=O)N[C@H](CC(=O)N2CCC3(C2)OC(=O)Nc2ccc(Cl)cc23)Cc2ccccc2)cc1 (stereo partly drawn) [Example 49, methyl (4-(((2S)-4-(6-chloro-2-oxo-1,2-dihydrospiro[benzo[d][1,3]oxazine-4,3′-pyrrolidin]-1′-yl)-4-oxo-1-phenylbutan-2-yl)carbamoyl)phenyl)carbamate]	362
COC(=O)Nc1ccc(C(=O)N[C@@H](CCCCO)C(=O)N2CCC3(C2)OC(=O)Nc2ccc(Cl)cc23)cc1 (stereo partly drawn) [Example 51, methyl (4-(((2S)-1-(6-chloro-2-oxo-1,2-dihydrospiro[benzo[d][1,3]oxazine-4,3′-pyrrolidin]-1′-yl)-6-hydroxy-1-oxohexan-2-yl)carbamoyl)phenyl)carbamate]	55.7
COC(=O)Nc1ccc(C(=O)N[C@@H](CCCCNC(=O)C(F)(F)F)C(=O)N2CCC[C@@]3(C2)OC(=O)Nc2ccc(Cl)cc23)cc1 [Example 54, methyl (4-(((S)-1-((R)-6-chloro-2-oxo-1,2-dihydrospiro[benzo[d][1,3]oxazine-4,3′-piperidin]-1′-yl)-1-oxo-6-(2,2,2-trifluoroacetamido)hexan-2-yl)carbamoyl)phenyl)carbamate]	52
COC(=O)Nc1ccc(C(=O)N[C@@H](C)C(=O)N2CCC[C@@]3(C2)OC(=O)Nc2ccc(Cl)cc23)cc1 [Example 55, methyl (4-(((S)-1-((R)-6-chloro-2-oxo-1,2-dihydrospiro[benzo[d][1,3]oxazine-4,3′-piperidin]-1′-yl)-1-oxopropan-2-yl)carbamoyl)phenyl)carbamate]	93.2
COC(=O)Nc1ccc(C(=O)N[C@@H](CC[S+](C)[O-])C(=O)N2CCC[C@@]3(C2)OC(=O)Nc2ccc(Cl)cc23)cc1 (stereo partly drawn) [Example 56, methyl (4-(((2S)-1-((R)-6-chloro-2-oxo-1,2-dihydrospiro[benzo[d][1,3]oxazine-4,3′-piperidin]-1′-yl)-4-(methylsulfinyl)-1-oxobutan-2-yl)carbamoyl)phenyl)carbamate]	102
